Results published in ChEMBL document CHEMBL1201862, “PubChem BioAssay data set” (2004).
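Dose response: 5 concentrations. Exposure: 48 h. Format: 96-well plates. Endpoint: linear interpolation; highest concentration if not reached. GI50: concentration for 50% inhibition of growth.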 Calls of active or inactive are those of the source. Rule as the data show it: active = GI50 up to about 1.1 µM and inactive = higher.

Experiments:
Test in all cases: NCI tumour cell line growth inhibition, 48 h
T47D = test system: T47D
MCF7 = test system: MCF7
HCC 2998 = test system: HCC 2998
HCT-116 = test system: HCT-116
COLO 205 = test system: COLO 205
MDA-MB-435 = test system: MDA-MB-435
KM12 = test system: KM12
SNB-19 = test system: SNB-19
RXF 393 = test system: RXF 393
SF-539 = test system: SF-539
HCT-15 = test system: HCT-15
NCI-H460 = test system: NCI-H460
SN12C = test system: SN12C
SK-OV-3 = test system: SK-OV-3
OVCAR-8 = test system: OVCAR-8
OVCAR-3 = test system: OVCAR-3
U-251 = test system: U-251
UACC-257 = test system: UACC-257
CCRF-CEM = test system: CCRF-CEM
UO-31 = test system: UO-31
IGROV-1 = test system: IGROV-1
Hs-578T = test system: Hs-578T
PC-3 = test system: PC-3
UACC-62 = test system: UACC-62
HOP-62 = test system: HOP-62
HL-60 = test system: HL-60
NCI-H23 = test system: NCI-H23
RPMI-8226 = test system: RPMI-8226
HOP-92 = test system: HOP-92
ACHN = test system: ACHN
Malme-3M = test system: Malme-3M
MOLT-4 = test system: MOLT-4
M14 = test system: M14
DU-145 = test system: DU-145
CAKI-1 = test system: CAKI-1
MDA-N = test system: MDA-N
786-0 = test system: 786-0
A549 = test system: A549
SR = test system: SR
SF-295 = test system: SF-295
BT-549 = test system: BT-549
K562 = test system: K562
HT-29 = test system: HT-29
SK-MEL-2 = test system: SK-MEL-2
MDA-MB-231 = test system: MDA-MB-231
EKVX = test system: EKVX
SF-268 = test system: SF-268
OVCAR-5 = test system: OVCAR-5
NCI-H226 = test system: NCI-H226
NCI-H522 = test system: NCI-H522
SNB-75 = test system: SNB-75
OVCAR-4 = test system: OVCAR-4
SW-620 = test system: SW-620
TK-10 = test system: TK-10
NCI/ADR-RES = test system: NCI/ADR-RES
A498 = test system: A498
LOX IMVI = test system: LOX IMVI
SK-MEL-5 = test system: SK-MEL-5
SK-MEL-28 = test system: SK-MEL-28

Measured: GI50

CCCCCC1=C/C(=C\c2[nH]c(-c3ccc[nH]3)cc2OC)N=C1C
active: T47D 0.0189 µM | MCF7 0.0136 µM | HCC 2998 0.0113 µM | HCT-116 < 0.01 µM | COLO 205 < 0.01 µM | MDA-MB-435 < 0.01 µM | KM12 < 0.01 µM | SNB-19 0.0562 µM | RXF 393 0.0115 µM | SF-539 0.0127 µM | NCI-H460 0.0124 µM | SN12C < 0.01 µM | SK-OV-3 0.25 µM | OVCAR-8 < 0.01 µM | OVCAR-3 < 0.01 µM | U-251 0.0122 µM | UACC-257 0.0684 µM | CCRF-CEM < 0.01 µM | UO-31 0.011 µM | IGROV-1 0.017 µM | Hs-578T < 0.01 µM | PC-3 < 0.01 µM | UACC-62 < 0.01 µM | HOP-62 0.0111 µM | HL-60 < 0.01 µM | NCI-H23 0.0128 µM | RPMI-8226 < 0.01 µM | HOP-92 < 0.01 µM | ACHN < 0.01 µM | Malme-3M 0.0448 µM | MOLT-4 < 0.01 µM | M14 < 0.01 µM | DU-145 < 0.01 µM | CAKI-1 < 0.01 µM | MDA-N < 0.01 µM | 786-0 < 0.01 µM | A549 0.0167 µM | SR < 0.01 µM | SF-295 < 0.01 µM | BT-549 0.0324 µM | K562 < 0.01 µM | HT-29 < 0.01 µM | SK-MEL-2 < 0.01 µM | MDA-MB-231 < 0.01 µM | EKVX 0.0145 µM | SF-268 < 0.01 µM | OVCAR-5 0.0179 µM | NCI-H226 0.012 µM | NCI-H522 < 0.01 µM | SNB-75 < 0.01 µM | OVCAR-4 < 0.01 µM | SW-620 < 0.01 µM | TK-10 0.0329 µM | NCI/ADR-RES < 0.01 µM | A498 0.0989 µM | LOX IMVI < 0.01 µM | SK-MEL-5 0.0316 µM | SK-MEL-28 0.0215 µM
< 0.01 µM: HCT-15

O=C(O)c1[nH]c(=O)[nH]c(=O)c1CN1CCCCC1
> 100 µM: HCT-15
active: CCRF-CEM 0.0553 µM
inactive: T47D > 100 µM | MCF7 > 100 µM | HCC 2998 > 100 µM | HCT-116 > 100 µM | COLO 205 > 100 µM | MDA-MB-435 > 100 µM | KM12 > 100 µM | SNB-19 > 100 µM | RXF 393 > 100 µM | NCI-H460 > 100 µM | SN12C > 100 µM | SK-OV-3 > 100 µM | OVCAR-8 > 100 µM | OVCAR-3 > 100 µM | U-251 > 100 µM | UACC-257 > 100 µM | UO-31 > 100 µM | IGROV-1 > 100 µM | Hs-578T > 100 µM | PC-3 > 100 µM | UACC-62 > 100 µM | HOP-62 > 100 µM | HL-60 > 100 µM | NCI-H23 > 100 µM | RPMI-8226 > 100 µM | HOP-92 > 100 µM | ACHN > 100 µM | Malme-3M > 100 µM | M14 > 100 µM | DU-145 > 100 µM | CAKI-1 > 100 µM | MDA-N > 100 µM | 786-0 > 100 µM | A549 > 100 µM | SR > 100 µM | SF-295 > 100 µM | BT-549 > 100 µM | K562 > 100 µM | HT-29 > 100 µM | SK-MEL-2 > 100 µM | MDA-MB-231 > 100 µM | EKVX > 100 µM | SF-268 > 100 µM | OVCAR-5 > 100 µM | NCI-H226 > 100 µM | NCI-H522 > 100 µM | SNB-75 > 100 µM | OVCAR-4 > 100 µM | SW-620 > 100 µM | TK-10 > 100 µM | NCI/ADR-RES > 100 µM | A498 > 100 µM | LOX IMVI > 100 µM | SK-MEL-5 > 100 µM | SK-MEL-28 > 100 µM

O=C1C=CC2(C=C1)O[C@H](Cc1ccccc1)[C@@H](Cc1ccccc1)O2
active: T47D 0.44 µM | MCF7 0.256 µM | HCT-116 0.1 µM | RXF 393 0.26 µM | SF-539 0.37 µM | SN12C 0.665 µM | OVCAR-8 0.193 µM | OVCAR-3 0.298 µM | U-251 1.05 µM | CCRF-CEM 0.102 µM | UO-31 0.258 µM | IGROV-1 0.218 µM | Hs-578T 0.716 µM | PC-3 0.873 µM | RPMI-8226 0.177 µM | HOP-92 1.01 µM | ACHN 0.279 µM | M14 0.653 µM | CAKI-1 0.484 µM | MDA-N 0.246 µM | SR 0.11 µM | BT-549 0.201 µM | K562 0.388 µM | HT-29 0.964 µM | MDA-MB-231 1.12 µM | EKVX 0.355 µM | SF-268 0.755 µM | OVCAR-5 0.281 µM | NCI-H226 0.255 µM | NCI-H522 0.174 µM | OVCAR-4 0.347 µM | SW-620 0.137 µM | TK-10 0.506 µM | NCI/ADR-RES 0.303 µM | LOX IMVI 0.223 µM | SK-MEL-5 0.568 µM | SK-MEL-28 0.887 µM
0.243 µM: HCT-15
inactive: HCC 2998 2.64 µM | COLO 205 1.55 µM | MDA-MB-435 1.31 µM | KM12 1.69 µM | SNB-19 2.11 µM | NCI-H460 8.79 µM | SK-OV-3 5.85 µM | UACC-257 1.28 µM | UACC-62 1.66 µM | HOP-62 1.15 µM | HL-60 1.28 µM | NCI-H23 1.16 µM | Malme-3M 1.48 µM | DU-145 1.26 µM | A549 4.62 µM | SF-295 2.17 µM | SK-MEL-2 1.41 µM | SNB-75 2.91 µM | A498 5.74 µM

Nc1[nH]c(Nc2ccc(Cl)c(Cl)c2)nc2ncnc1-2
15.3 µM: HCT-15
inactive: T47D 8.55 µM | MCF7 14.6 µM | HCC 2998 14.4 µM | HCT-116 15.1 µM | COLO 205 20.7 µM | MDA-MB-435 16.6 µM | KM12 13.7 µM | SNB-19 14.1 µM | RXF 393 4.78 µM | SF-539 12.4 µM | NCI-H460 15.5 µM | SN12C 23.6 µM | SK-OV-3 15.3 µM | OVCAR-8 14.7 µM | OVCAR-3 11.7 µM | U-251 15.2 µM | UACC-257 17.5 µM | CCRF-CEM 16.1 µM | UO-31 8.73 µM | IGROV-1 4.76 µM | Hs-578T 5.87 µM | PC-3 12 µM | UACC-62 11.9 µM | HOP-62 12.9 µM | HL-60 6.67 µM | NCI-H23 18.3 µM | RPMI-8226 14.5 µM | HOP-92 16.6 µM | ACHN 9.89 µM | Malme-3M 18.2 µM | MOLT-4 11.7 µM | M14 16 µM | DU-145 7.41 µM | CAKI-1 10.8 µM | MDA-N 17.5 µM | 786-0 15.7 µM | A549 13.9 µM | SR 11 µM | SF-295 17.5 µM | BT-549 12.9 µM | K562 16.1 µM | HT-29 14.7 µM | SK-MEL-2 17.5 µM | MDA-MB-231 14 µM | EKVX 1.98 µM | SF-268 11 µM | OVCAR-5 25.5 µM | NCI-H226 20.6 µM | NCI-H522 15.3 µM | SNB-75 8.36 µM | OVCAR-4 20.3 µM | SW-620 18.1 µM | TK-10 13.2 µM | NCI/ADR-RES 15.9 µM | A498 6.87 µM | LOX IMVI 14.8 µM | SK-MEL-5 14.6 µM

N#C[BH2-][n+]1ccc(C(=O)NNCc2cccc(C(F)(F)F)c2)cc1
inactive: T47D 20 µM | MCF7 5.64 µM | HCC 2998 7.11 µM | HCT-116 15.2 µM | COLO 205 14.1 µM | MDA-MB-435 17.7 µM | KM12 4.76 µM | SNB-19 13.6 µM | RXF 393 8.22 µM | SF-539 4.08 µM | NCI-H460 20 µM | SN12C 28.8 µM | SK-OV-3 8.93 µM | OVCAR-8 3.98 µM | OVCAR-3 10.9 µM | U-251 7.71 µM | UACC-257 4.92 µM | CCRF-CEM 28.4 µM | UO-31 11.9 µM | IGROV-1 30.1 µM | Hs-578T 4.59 µM | PC-3 13.8 µM | UACC-62 4.59 µM | HOP-62 12.8 µM | HL-60 23.4 µM | NCI-H23 12.2 µM | RPMI-8226 21.4 µM | HOP-92 14.9 µM | ACHN 33.7 µM | Malme-3M 3.54 µM | MOLT-4 17.6 µM | M14 8.75 µM | DU-145 33.1 µM | CAKI-1 37.9 µM | MDA-N 10.2 µM | 786-0 4.83 µM | A549 13.5 µM | SR 26.9 µM | SF-295 6.68 µM | BT-549 14.3 µM | K562 20.5 µM | HT-29 6.01 µM | SK-MEL-2 12.1 µM | MDA-MB-231 10.4 µM | EKVX 27.3 µM | SF-268 4.82 µM | OVCAR-5 21.2 µM | NCI-H226 3.27 µM | NCI-H522 16.3 µM | SNB-75 3.85 µM | OVCAR-4 6.14 µM | SW-620 25.5 µM | TK-10 27.3 µM | NCI/ADR-RES 11.6 µM | A498 21.6 µM | LOX IMVI 4.26 µM | SK-MEL-5 1.83 µM | SK-MEL-28 5.5 µM
21.3 µM: HCT-15
